± gives the expanded uncertainty stated by the source.
Settings: 323.14 K, Liquid, Vibrating tube method

CCCCCCC(=O)OCC(COC(=O)CCCCCC)(COC(=O)CCCCCC)COC(=O)CCCCCC [pentaerythritol tetraheptanoate]
mass density (18264 kPa): 967.6 ± 1.2 kg/m3 | mass density (18279 kPa): 967.6 ± 1.2 kg/m3 | mass density (18292 kPa): 967.7 ± 1.2 kg/m3 | mass density (18304 kPa): 967.6 ± 1.2 kg/m3 | mass density (18320 kPa): 967.6 ± 1.2 kg/m3 | mass density (18332 kPa): 967.6 ± 1.2 kg/m3 | mass density (18347 kPa): 967.6 ± 1.2 kg/m3 | mass density (18360 kPa): 967.7 ± 1.2 kg/m3 | mass density (18373 kPa): 967.7 ± 1.2 kg/m3 | mass density (18385 kPa): 967.8 ± 1.2 kg/m3 | mass density (18401 kPa): 967.7 ± 1.2 kg/m3 | mass density (18413 kPa): 967.8 ± 1.2 kg/m3 | mass density (18426 kPa): 967.6 ± 1.2 kg/m3 | mass density (18442 kPa): 967.8 ± 1.2 kg/m3 | mass density (18454 kPa): 967.7 ± 1.2 kg/m3 | mass density (18469 kPa): 967.7 ± 1.2 kg/m3 | mass density (18482 kPa): 967.7 ± 1.2 kg/m3 | mass density (18495 kPa): 967.7 ± 1.2 kg/m3 | mass density (18511 kPa): 967.7 ± 1.2 kg/m3 | mass density (18920 kPa): 967.9 ± 1.2 kg/m3 | mass density (18933 kPa): 968 ± 1.2 kg/m3 | mass density (18964 kPa): 968.1 ± 1.2 kg/m3 | mass density (19110 kPa): 968.3 ± 1.2 kg/m3 | mass density (19518 kPa): 968.3 ± 1.2 kg/m3 | mass density (19532 kPa): 968.3 ± 1.2 kg/m3 | mass density (19550 kPa): 968.4 ± 1.2 kg/m3 | mass density (19962 kPa): 968.7 ± 1.2 kg/m3 | mass density (20010 kPa): 968.7 ± 1.2 kg/m3 | mass density (20615 kPa): 969.1 ± 1.2 kg/m3 | mass density (20951 kPa): 969.3 ± 1.2 kg/m3 | mass density (20968 kPa): 969.2 ± 1.2 kg/m3 | mass density (21002 kPa): 969.4 ± 1.2 kg/m3 | mass density (21114 kPa): 969.2 ± 1.2 kg/m3 | mass density (21149 kPa): 969.4 ± 1.2 kg/m3 | mass density (21166 kPa): 969.4 ± 1.2 kg/m3 | mass density (21187 kPa): 969.4 ± 1.2 kg/m3 | mass density (21204 kPa): 969.5 ± 1.2 kg/m3 | mass density (21222 kPa): 969.3 ± 1.2 kg/m3 | mass density (21243 kPa): 969.4 ± 1.2 kg/m3 | mass density (21261 kPa): 969.4 ± 1.2 kg/m3 | mass density (21812 kPa): 969.9 ± 1.2 kg/m3 | mass density (21889 kPa): 969.8 ± 1.2 kg/m3 | mass density (21912 kPa): 969.9 ± 1.2 kg/m3 | mass density (22010 kPa): 969.9 ± 1.2 kg/m3 | mass density (22028 kPa): 970 ± 1.2 kg/m3 | mass density (22051 kPa): 969.9 ± 1.2 kg/m3 | mass density (22255 kPa): 970 ± 1.2 kg/m3 | mass density (22294 kPa): 970.1 ± 1.2 kg/m3 | mass density (22673 kPa): 970.3 ± 1.2 kg/m3 | mass density (22693 kPa): 970.2 ± 1.2 kg/m3 | mass density (22738 kPa): 970.5 ± 1.2 kg/m3 | mass density (22934 kPa): 970.5 ± 1.2 kg/m3 | mass density (22955 kPa): 970.5 ± 1.2 kg/m3 | mass density (22976 kPa): 970.5 ± 1.2 kg/m3 | mass density (23001 kPa): 970.4 ± 1.2 kg/m3 | mass density (23022 kPa): 970.6 ± 1.2 kg/m3 | mass density (23064 kPa): 970.5 ± 1.2 kg/m3 | mass density (23111 kPa): 970.6 ± 1.2 kg/m3 | mass density (23132 kPa): 970.6 ± 1.2 kg/m3 | mass density (23157 kPa): 970.6 ± 1.2 kg/m3 | mass density (23178 kPa): 970.5 ± 1.2 kg/m3 | mass density (23200 kPa): 970.6 ± 1.2 kg/m3 | mass density (23225 kPa): 970.5 ± 1.2 kg/m3 | mass density (23246 kPa): 970.5 ± 1.2 kg/m3 | mass density (23268 kPa): 970.7 ± 1.2 kg/m3 | mass density (23294 kPa): 970.7 ± 1.2 kg/m3 | mass density (23315 kPa): 970.7 ± 1.2 kg/m3 | mass density (23358 kPa): 970.7 ± 1.2 kg/m3 | mass density (23384 kPa): 970.8 ± 1.2 kg/m3 | mass density (23431 kPa): 970.8 ± 1.2 kg/m3 | mass density (23453 kPa): 970.8 ± 1.2 kg/m3 | mass density (23474 kPa): 970.7 ± 1.2 kg/m3 | mass density (23496 kPa): 970.9 ± 1.2 kg/m3 | mass density (23522 kPa): 970.8 ± 1.2 kg/m3 | mass density (23544 kPa): 970.8 ± 1.2 kg/m3 | mass density (23566 kPa): 970.8 ± 1.2 kg/m3 | mass density (23592 kPa): 970.8 ± 1.2 kg/m3 | mass density (23614 kPa): 970.8 ± 1.2 kg/m3 | mass density (23755 kPa): 971 ± 1.2 kg/m3 | mass density (23777 kPa): 970.9 ± 1.2 kg/m3 | mass density (23805 kPa): 971.1 ± 1.2 kg/m3 | mass density (23827 kPa): 971 ± 1.2 kg/m3 | mass density (23853 kPa): 970.9 ± 1.2 kg/m3 | mass density (23875 kPa): 971 ± 1.2 kg/m3 | mass density (23898 kPa): 971.1 ± 1.2 kg/m3 | mass density (23921 kPa): 971 ± 1.2 kg/m3 | mass density (23948 kPa): 971 ± 1.2 kg/m3 | mass density (24439 kPa): 971.4 ± 1.2 kg/m3 | mass density (24490 kPa): 971.3 ± 1.2 kg/m3 | mass density (24592 kPa): 971.5 ± 1.2 kg/m3 | mass density (24645 kPa): 971.6 ± 1.2 kg/m3 | mass density (24693 kPa): 971.5 ± 1.2 kg/m3 | mass density (24722 kPa): 971.5 ± 1.2 kg/m3 | mass density (24746 kPa): 971.5 ± 1.2 kg/m3 | mass density (24799 kPa): 971.6 ± 1.2 kg/m3 | mass density (24824 kPa): 971.6 ± 1.2 kg/m3 | mass density (24848 kPa): 971.6 ± 1.2 kg/m3 | mass density (24874 kPa): 971.5 ± 1.2 kg/m3 | mass density (24903 kPa): 971.6 ± 1.2 kg/m3 | mass density (24928 kPa): 971.6 ± 1.2 kg/m3 | mass density (24957 kPa): 971.7 ± 1.2 kg/m3 | mass density (24981 kPa): 971.5 ± 1.2 kg/m3 | mass density (25006 kPa): 971.7 ± 1.2 kg/m3 | mass density (25031 kPa): 971.8 ± 1.2 kg/m3 | mass density (25061 kPa): 971.7 ± 1.2 kg/m3 | mass density (25387 kPa): 971.9 ± 1.2 kg/m3 | mass density (25413 kPa): 972 ± 1.2 kg/m3 | mass density (25633 kPa): 972.1 ± 1.2 kg/m3 | mass density (25717 kPa): 972 ± 1.2 kg/m3 | mass density (25828 kPa): 972 ± 1.2 kg/m3 | mass density (25860 kPa): 972.3 ± 1.2 kg/m3 | mass density (25888 kPa): 972.3 ± 1.2 kg/m3
